# Laboratory results from patent US20070149525A1, “Methods of treating amyloidosis using aryl-cyclopropyl derivative aspartyl protease inhibitors” (priority 2005, published 2007).
# Where “and” joins values, the source holds several entries; their conditions need not be identical. Equal entries are not always repeated.
# Experiments:
# [1] = test system: Madin-Darby Canine Kidney (MDCK) cells; test: In vitro permeability across MDCK cell monolayer; type: in vitro ADME; conditions: test compound 5 μM, 2 h at 37° C., apical to basolateral
# Experimental: (§1) Compounds were evaluated for permeability across a monolayer of Madin-Darby Canine Kidney (MDCK) cells in a transwell device following culturing for 4 days. […] A 0.5 mL of cell suspension (400,000 cells/mL) was placed on membrane and a 1.5 mL media in the bottom wells on day 1. On day 2 and day 3, cells were fed with new media. […] Media was removed from upper chambers and filled with mHBSS with or without CspA, and incubated 30 min at 37° C. with light shaking. Donor chambers were emptied, and filled with test compound at 5 μM in mHBSS. […] Plates were incubated for 2 h at 37° C. with shaking. After 2 h, both the donor and receiver wells were sampled. The bottom chambers were read in a fluorometer to assess LY leakage, and then the media from all wells were assayed by LC/MS/MS to determine compound levels.
# [2] = Brain to plasma ratio in female FVB mice; type: in vivo; conditions: 100 mpk dose
# [3] = test system: beta-secretase (BACE) versus cathepsin D (catD); test: CatD/BACE selectivity (ratio of IC50 values); type: biochemical; conditions: each value average of four experimental runs; multiple values = more than one experiment
# Experimental: Investigation of potential beta-secretase inhibitors produced compounds with increased selectivity for beta-secretase over other aspartyl proteases such as cathepsin D (catD), cathepsin E (catE), Human Immunodeficiency Viral (HIV) protease, and renin. Selectivity was calculated as a ratio of inhibition (IC50) values in which the inhibition of beta-secretase was compared to the inhibition of other aspartyl proteases.
# The compounds of formula (I) can be selective for beta-secretase versus catD.
# In the following examples, each value is an average of four experimental runs and multiple values for one compound indicate that more than one experiment was conducted.
# [4] = In vitro permeability across MDCK cell monolayer; type: in vitro ADME, Canine; conditions: dog, MDCK, test compound 5 μM, 2 h at 37° C., apical to basolateral, read-out: Permeability Forward A > B
# Experimental: as §1
# P-gp = conditions: mdr1 a/b (-/-) and FVB wild-type, mouse, not told, iv, 2.5 mg/kg, 5 min
# Experimental: Use of mdr1 (−/−) mouse and its FVB wild-type littermates, which expresses P-gp at their blood-brain barrier (BBB), can distinguish between a test compound of high P-gp liability from one with a more desirable low P-gp liability.
# Test compounds are administered to both the mdr1 a/b (−/−) and the FVB wild-type mice (N=4/strain) intravenously at 2.5 mg/Kg through the tail vein. Plasma and brains are harvested at 5 min post administration. Test compound is extracted from tissue in parallel with calibration curves prepared from age-matched control tissues, then quantitated by LC/MS/MS. The ratio of brain concentration (Cb) to plasma concentration (Cp) is used as a measure of brain penetration according to the following formula: Brain Penetration (P)=Cb/Cp Therefore, a measure of brain penetration in the mdr1 (−/−) mouse relative to that of the wild-type animal represents an assessment of in vivo P-gp efflux, which is analogous to that determine in vitro with MDR1-MDCK cells. Calculations are made according to the following formula: Pmdr1/PFVB=In vivo Efflux
Permeability Forward A > B [1],Selectivity IC50 catD/IC50 BACE [3],SMILES,other results
8.78 ×10⁻⁶ cm/s,–,"CC(=O)NC(Cc1cc(F)cc(F)c1)C(O)CNC1(c2cccc(-n3cccn3)c2)CC1 (centres unmarked) [Example 23.18, N-(4-(1-(3-(1H-pyrazol-1-yl)phenyl)cyclopropylamino)-1-(3,5-difluorophenyl)-3-hydroxybutan-2-yl)acetamide]",–
–,–,CC(=O)NC(Cc1cc(F)cc(F)c1)C(O)CNC1(c2cccc(C(C)(C)C(F)F)c2)CC1 (centres unmarked) [23.57],"Brain AUC (0-6 h) [2]: 57 µM·h; Kp ([2]; mouse, brain and plasma, 100 mg/kg, AUC (0-6 h)): 0.7; AUC(0-t) ([2]; mouse, plasma, 100 mg/kg, read-out: Plasma AUC (0-6 h)): 86 µM·h"
–,1.6 and 0.9,"CC(=O)NC(Cc1cc(F)cc(F)c1)C(O)CNC1(c2csc(C(C)(C)C)c2)CC1 (centres unmarked) [Example 23.6, N-(4-(1-(5-tert-butylthiophen-3-yl)cyclopropylamino)-1-(3,5-difluorophenyl)-3-hydroxybutan-2-yl)acetamide]",–
14.8 ×10⁻⁶ cm/s,–,"CC(=O)NC(Cc1cc(F)cc(F)c1)C(O)CNC1(c2cccc(-n3cccn3)c2)CC1C(C)C (centres unmarked) [Example 23.54, N-(4-(1-(3-(1H-pyrazol-1-yl)phenyl)-2-isopropylcyclopropylamino)-1-(3,5-difluorophenyl)-3-hydroxybutan-2-yl)acetamide]","Papp A→B at 2 h, 5 μM [4]: 11.4 ×10⁻⁶ cm/s"
12.21 ×10⁻⁶ cm/s and 18.32 ×10⁻⁶ cm/s,–,"CC(=O)NC(Cc1cc(F)cc(F)c1)C(O)CNC1(c2cccc(-n3cccn3)c2)CC1 (centres unmarked) [Example 23.11, N-(4-(1-(3-(1H-pyrazol-1-yl)phenyl)cyclopropylamino)-1-(3,5-difluorophenyl)-3-hydroxybutan-2-yl)acetamide]",–
–,1.5,"CC(=O)NC(Cc1cc(F)cc(F)c1)C(O)CNC1(c2cc(O)cc(CC(C)(C)C)c2)CC1 (centres unmarked) [Example 23.3, N-(1-(3,5-difluorophenyl)-3-hydroxy-4-(1-(3-hydroxy-5-neopentylphenyl)cyclopropylamino)butan-2-yl)acetamide]",–
16.35 ×10⁻⁶ cm/s,–,"CC(=O)NC(Cc1cc(F)cc(F)c1)C(O)CNC1(c2cccc(-n3cccn3)c2)CC1 (centres unmarked) [Example 23.27, N-(4-(1-(3-(1H-pyrazol-1-yl)phenyl)cyclopropylamino)-1-(3,5-difluorophenyl)-3-hydroxybutan-2-yl)acetamide]",–
14.1 ×10⁻⁶ cm/s and 9.2 ×10⁻⁶ cm/s,–,"CCC1CC1(NCC(O)C(Cc1cc(F)cc(F)c1)NC(C)=O)c1cccc(-n2cccn2)c1 (centres unmarked) [Example 23.55, N-(4-(1-(3-(1H-pyrazol-1-yl)phenyl)-2-ethylcyclopropylamino)-1-(3,5-difluorophenyl)-3-hydroxybutan-2-yl)acetamide]","Papp A→B at 2 h, 5 μM [4]: 18.4 ×10⁻⁶ cm/s"
–,6.0,"CC(=O)NC(Cc1cc(F)cc(F)c1)C(O)CNC1(c2cnn(C(C)(C)C)c2)CC1 (centres unmarked) [Example 23.5, N-(4-(1-(1-tert-butyl-1H-pyrazol-4-yl)cyclopropylamino)-1-(3,5-difluorophenyl)-3-hydroxybutan-2-yl)acetamide]",–
–,13.0,"CC(=O)NC(Cc1cc(F)cc(F)c1)C(O)CNC1(c2cccc(C3CCCC3)c2)CC1 (centres unmarked) [Example 23.2, N-(4-(1-(3-cyclopentylphenyl)cyclopropylamino)-1-(3,5-difluorophenyl)-3-hydroxybutan-2-yl)acetamide]",–
–,–,CNCC[C@@H](Oc1ccccc1C)c1ccccc1 [atomoxetine],in vivo P-gp efflux (Pmdr1/PFVB) (P-gp): 1.17
–,3.3,"O=C(Cc1nnn[nH]1)NC(Cc1cc(F)cc(F)c1)C(O)CNC1(c2cccc(-n3cccn3)c2)CC1 (centres unmarked) [Example 23.8, N-(4-(1-(3-(1H-pyrazol-1-yl)phenyl)cyclopropylamino)-1-(3,5-difluorophenyl)-3-hydroxybutan-2-yl)-2-(1H-tetrazol-5-yl)acetamide]",–
16.29 ×10⁻⁶ cm/s,–,"CC(=O)NC(Cc1cc(F)cc(F)c1)C(O)CNC1(c2cccc(-n3cccn3)c2)CC1 (centres unmarked) [Example 23.12, N-(4-(1-(3-(1H-pyrazol-1-yl)phenyl)cyclopropylamino)-1-(3,5-difluorophenyl)-3-hydroxybutan-2-yl)acetamide]",–
–,2.6,"O=C(O)CCCC(=O)NC(Cc1cc(F)cc(F)c1)C(O)CNC1(c2cccc(-n3cccn3)c2)CC1 (centres unmarked) [Example 23.9, 4-(4-(1-(3-(1H-pyrazol-1-yl)phenyl)cyclopropylamino)-1-(3,5-difluorophenyl)-3-hydroxybutan-2-ylcarbamoyl)butanoic acid]",–
–,1.7,"CC(=O)NC(Cc1cc(F)cc(F)c1)C(O)CNC1(c2cccc(C(C)C(F)(F)F)c2)CC1 (centres unmarked) [Example 23.7, N-(1-(3,5-difluorophenyl)-3-hydroxy-4-(1-(3-(1,1,1-trifluoropropan-2-yl)phenyl)cyclopropylamino)butan-2-yl)acetamide]",–
–,3.4,"CC(=O)NC(Cc1cc(F)cc(F)c1)C(O)CNC1(c2cccc(C3CC4CCC3C4)c2)CC1 (centres unmarked) [Example 23.1, N-(4-(1-(3-(bicyclo[2.2.1]heptan-2-yl)phenyl)cyclopropylamino)-1-(3,5-difluorophenyl)-3-hydroxybutan-2-yl)acetamide]",–
19.62 ×10⁻⁶ cm/s,–,"CC(=O)NC(Cc1cc(F)cc(F)c1)C(O)CNC1(c2cccc(C(C)C(F)(F)F)c2)CC1 (centres unmarked) [Example 23.28, N-(1-(3,5-difluorophenyl)-3-hydroxy-4-(1-(3-(1,1,1-trifluoropropan-2-yl)phenyl)cyclopropylamino)butan-2-yl)acetamide]","Papp A→B at 2 h, 5 μM [4]: 12.6 ×10⁻⁶ cm/s"
–,3.5,"CC(=O)NC(Cc1cc(F)cc(F)c1)C(O)CNC1(c2ccn(CC(C)(C)C)n2)CC1 (centres unmarked) [Example 23.4, N-(1-(3,5-difluorophenyl)-3-hydroxy-4-(1-(1-neopentyl-1H-pyrazol-3-yl)cyclopropylamino)butan-2-yl)acetamide]",–
